# Assays:
# Btk (Y223) = assay: Immunoblotting of neutrophil lysates, Btk phosphorylation; assay type: cell-based, human; conditions: 0.1 μM fMLF-stimulated neutrophils
# Protocol: (§1) Neutrophils incubated with bletinib or DMSO at 37° C. for 5 min were stimulated with 0.1 μM fMLF for 30 s. The proteins were separated from neutrophil lysates through electrophoresis (12% sodium dodecyl sulphate-polyacrylamide gel electrophoresis) and then transferred to nitrocellulose membranes. The target proteins were identified through immunoblotting with specific antibodies against p38, p-p38, Akt, p-Akt S473, ERK, p-ERK, INK, p-JNK, Src, p-SFKs Y416, p-Src Y416, Lyn, p-Lyn (Y396), Fgr, p-Fgr (Y412), Hck, p-Hck (Y410), Btk, p-Btk Y223, Vav, and p-Vav (Y174) as well as with HRP-conjugated secondary anti-rabbit antibody (Cell Signaling Technology). The signal intensity was detected and quantified using the UVP BioSpectrum Imaging System (Analytik Jena, USA).
# Lyn = Lyn (Homo sapiens, UniProt P07948); assay: Cell-free ADP-Glo kinase assay, Lyn; assay type: biochemical; conditions: 1-10 μM bletinib or 0.1-3 μM PP2; 125 μM ATP; concentration-dependent
# Protocol: The kinase activity of SFKs was assessed using an ADP-Glo kinase assay kit (Promega, Fitchburg, USA) according to manufacturer instructions. […] The ADP-Glo reagent was used to end the kinase reaction and remove the remnant ATP; next, the kinase, which converted ADP to ATP, detection reagent was added and incubated for 30 min. Luciferin/luciferase luminescence was determined on an Infinite 200 Pro (Tecan, Switzerland).
# Vav (Y174) = assay: Immunoblotting of neutrophil lysates, Vav phosphorylation; assay type: cell-based, human; conditions: 0.1 μM fMLF-stimulated neutrophils
# Protocol: as §1
# human neutrophils = assay: Neutrophil elastase (NE) release (degranulation); assay type: cell-based
# Protocol: Human neutrophils (6×10^5 cells/mL) were incubated with DMSO or bletinib after treatment with 1 mM CaCl2 and 100 μM NE substrate (Methoxysuccinyl-Ala-Ala-Pro-Val-p-nitroanilide) at 37° C. for 5 min. Cells were stimulated with fMLF/0.5 μg mL^−1 CB, leukotriene B4 (LTB4)/2 μg mL^−1 CB, NaF/2 μg mL^−1 CB, or MMK-1/0.5 μg mL-1 CB for 10 min before determination of NE release by measuring the change of absorbance at 405 nm in a spectrophotometer.
# Sequence of Lyn (P07948 whole entry): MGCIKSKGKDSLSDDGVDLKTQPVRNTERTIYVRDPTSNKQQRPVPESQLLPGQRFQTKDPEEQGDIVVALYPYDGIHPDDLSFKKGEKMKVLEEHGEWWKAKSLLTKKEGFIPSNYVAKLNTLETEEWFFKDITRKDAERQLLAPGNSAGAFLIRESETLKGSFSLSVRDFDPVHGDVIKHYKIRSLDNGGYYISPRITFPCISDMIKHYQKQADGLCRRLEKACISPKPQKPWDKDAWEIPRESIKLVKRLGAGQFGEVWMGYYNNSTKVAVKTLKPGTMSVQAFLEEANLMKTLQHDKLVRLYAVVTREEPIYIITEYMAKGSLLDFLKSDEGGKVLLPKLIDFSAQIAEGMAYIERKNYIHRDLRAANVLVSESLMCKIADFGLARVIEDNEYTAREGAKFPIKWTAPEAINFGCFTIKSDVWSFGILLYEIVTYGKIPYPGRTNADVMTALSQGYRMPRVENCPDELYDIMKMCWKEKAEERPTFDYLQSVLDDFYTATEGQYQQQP
smiles,measurement,setting,value
"COc1cc(O)cc(CCc2c(Cc3ccc(O)cc3)ccc(O)c2Cc2ccc(O)cc2)c1 [bletinib, 3,3′-dihydroxy-2′,6′-bis(p-hydroxybenzyl)-5-methoxybibenzyl]",phosphorylation of Btk (Y223),Btk (Y223),significantly inhibited
same,kinase activity of Lyn,Lyn,inhibited
same,phosphorylation of Vav (Y174),Vav (Y174),significantly inhibited
same,IC50,"human neutrophils; Homo sapiens, Neutrophil, fMLF/CB stimulation, read-out: release of NE in fMLF-stimulated human neutrophils, IC50",530 ± 70 nM
same,NE release from neutrophils stimulated with LTB4,"human neutrophils; LTB4/CB, 0.1-10 μM bletinib, concentration-dependent",downregulated
same,NE release from neutrophils stimulated with MMK-1,"human neutrophils; MMK-1/CB, 0.1-10 μM bletinib, concentration-dependent",downregulated
same,NE release from neutrophils stimulated with NaF,"human neutrophils; NaF/CB, 0.1-10 μM bletinib, concentration-dependent",downregulated

# From US20220339122A1, “METHODS FOR THE TREATMENT OF DISEASES ASSOCIATED WITH DYSREGULATED ACTIVATION AND RECRUITMENT OF NEUTROPHILS” (Chang Gung University, priority 2021, published 2022)
